This is an account of results in ChEMBL document CHEMBL1201862, “PubChem BioAssay data set” (2004).

SMILES strings stand for the structures.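 Five concentrations, 48 hours, 96-well plates. GI50 is the concentration that inhibits growth by half.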 Activity calls are given as the source filed them. Rule as the data show it: active = GI50 up to about 1.1 µM and inactive = higher. Some results are limits rather than exact numbers.

Common to all, as to experiment: NCI anticancer screen, dose series, 48 h
Assay [1] has as its system A498.
The test system of assay [2] is A549.
Assay [3] concerns ACHN.
The subject of assay [4] is CAKI-1.
Assay [5] concerns CCRF-CEM.
Assay [6] concerns IGROV-1.
The test system of assay [7] is M19-MEL.
The test system of assay [8] is NCI-H226.
For assay [9], the system named is OVCAR-5.
Assay [10] concerns PC-3.
Assay [11] relates to RPMI-8226.
Assay [12] relates to SK-OV-3.
In assay [13] the test system is SN12C.
Assay [14] concerns SNB-19.
Assay [15] deals with SNB-75.
Assay [16] relates to SR.
The subject of assay [17] is SW-620.
The test system of assay [18] is U-251.
The test system of assay [19] is UACC-257.
In assay [20] the test system is UO-31.

Take `CNC(=O)OCc1nc(SSC(C)(C)C)n(C)c1COC(=O)NC`: the GI50 is 9.38 µM (inactive) in assay [1]; 14.2 µM (inactive) in assay [2]; 2.7 µM (inactive) in assay [3]; 1.82 µM (inactive) in [4]; 0.697 µM (active) in assay [5]; 8.13 µM (inactive) in assay [6]. Moreover, the GI50 in [7] was 3.32 µM (inactive); in assay [8], 13.3 µM (inactive); in assay [9], 10.4 µM (inactive); in assay [10], 8.75 µM (inactive); in [11], 2.54 µM (inactive); in assay [12], 17.1 µM (inactive). Besides, the GI50 in assay [13] was 4.42 µM (inactive); in assay [14] it was 18 µM (inactive); in [15], 8.57 µM (inactive); in assay [16], 1.05 µM (active); in assay [17], 1.61 µM (inactive); in assay [18], 12.9 µM (inactive). Further, the GI50 was 2.94 µM (inactive) in assay [19] and 9.02 µM (inactive) in [20].

As to `CO[C@H]1C[C@](C)(O)Cc2cc3c(c(O)c21)C(=O)c1c(O)cc2c(c1C3=O)O[C@@H]1O[C@@]2(C)[C@H](O)[C@@H](N(C)C)[C@@H]1O`, the GI50 in assay [1] was 0.968 µM (active); in assay [2], 0.0908 µM (active); in [3] it was 0.279 µM (active); in assay [4] it was 0.151 µM (active); in [5], 0.151 µM (active); in [6], 2.32 µM (inactive). The GI50 in assay [7] is 1.11 µM (active); in assay [8] it was 0.59 µM (active); in assay [9], 3.35 µM (inactive); in assay [10], 0.661 µM (active); in [12] it was 0.641 µM (active); in assay [13] it was 0.499 µM (active). For the same compound, the GI50 in assay [14] is 0.434 µM (active); in assay [15], 0.653 µM (active); in [16] it was 0.0282 µM (active); in assay [17], 0.55 µM (active); in assay [18], 0.368 µM (active); in [19], 9.73 µM (inactive). In assay [20], the GI50 is 1.74 µM (inactive).

Take `CC(C)=CC(=O)Oc1ccc([N+](=O)[O-])cc1`: the GI50 in assay [1] was > 100 µM (inactive); in assay [2], > 100 µM (inactive); in assay [3] it was > 100 µM (inactive); in assay [4], 20.7 µM (inactive); in [5] it was > 100 µM (inactive); in assay [6], > 100 µM (inactive). Further, the GI50 in assay [7], in [8], in assay [9], in assay [11], in assay [12] and in [13] was > 100 µM (inactive) in each case. Besides, the GI50 in [14], in [15], in assay [16], in assay [17], in [18] and in [19] was > 100 µM (inactive) throughout. Also, in [20], the GI50 was > 100 µM (inactive).

On to `O=C(NC(c1ccccc1)C(O)C(=O)OCc1ccc2c(c1)C(=O)c1ccccc1C2=O)c1ccccc1` (stereo not drawn), for which the GI50 in assay [1] is 5.71 µM (inactive); in assay [2], 9.91 µM (inactive); in assay [3], 9.31 µM (inactive); in assay [4], 8.65 µM (inactive); in assay [5], 77.3 µM (inactive); in [6], 18.5 µM (inactive). Also, the GI50 is 53.6 µM (inactive) in assay [7]; 4.61 µM (inactive) in assay [8]; 58.7 µM (inactive) in assay [9]; 17.2 µM (inactive) in assay [10]; 35.8 µM (inactive) in assay [11]; 5.18 µM (inactive) in [12]. For the same compound, the GI50 in [13] was 8.69 µM (inactive); in [14] it was 5.47 µM (inactive); in [15], 4.37 µM (inactive); in assay [16], 57.9 µM (inactive); in [17] it was 63.5 µM (inactive); in assay [18], 5.46 µM (inactive). Further, the GI50 in [19] was 28.5 µM (inactive); in assay [20], 2.86 µM (inactive).
